Literature values, collected in US20130137635A1, “TRYPTOPHAN HYDROXYLASE INHIBITORS FOR THE TREATMENT OF METASTATIC BONE DISEASE” (LEXICON PHARMACEUTICALS, INC., priority 2010, published 2013).

Columns and labels:
[1] = system: cholangiocarcinoma tumors; details: in vivo xenograft model of cholangiocarcinoma tumors; pCPA treatment
carcinoid syndrome = details: patients; reported in the 1960's

## N[C@@H](Cc1ccc(Cl)cc1)C(=O)O (racemic) [pCPA, para-chlorophenylalanine]
[1]
  tumor growth: suppressed tumor growth
Carcinoid syndrome
  effect on symptoms of carcinoid syndrome: alleviated some of the symptoms of carcinoid syndrome
  side effects on administration: unacceptable side effects
